Values joined by “and” are separate entries in the source; they are usually repeats but may differ in a detail not shown here. Equal entries are not always repeated.
How the values were obtained:
[1] = tested on: transgenic Arabidopsis thaliana plants expressing wildtype or mutated PPO; assay: Germination / growth inhibition assay of transgenic Arabidopsis T2 seeds in 48-well plates; settings: growth inhibition seven to ten days after seeding
[2] = tested on: transgenic soybean expressing mutated PPO; assay: Soybean segregating T1 individuals, greenhouse spray test (injury 0-9); type: in vivo, Glycine max; settings: 1 week after treatment

Cc1nn(-c2cc(NS(C)(=O)=O)c(Cl)cc2Cl)c(=O)n1C(F)F [Sulfentrazon, sulfentrazone]
Relative tolerance rate as compared to a non-transgenic Arabidopsis plant (non-transgenic = 1.0) ([1]; transgenic Arabidopsis AMATU_PPO2_F420I): 193 | Relative tolerance rate as compared to a non-transgenic Arabidopsis plant (non-transgenic = 1.0) ([1]; transgenic Arabidopsis AMATU_PPO2_F420L): 111 | Relative tolerance rate as compared to a non-transgenic Arabidopsis plant (non-transgenic = 1.0) ([1]; transgenic Arabidopsis AMATU_PPO2_F420M): 161 | Relative tolerance rate as compared to a non-transgenic Arabidopsis plant (non-transgenic = 1.0) ([1]; transgenic Arabidopsis AMATU_PPO2_R128A_F420I): 621 | Relative tolerance rate as compared to a non-transgenic Arabidopsis plant (non-transgenic = 1.0) ([1]; transgenic Arabidopsis AMATU_PPO2_R128A_F420L): 717 | Relative tolerance rate as compared to a non-transgenic Arabidopsis plant (non-transgenic = 1.0) ([1]; transgenic Arabidopsis AMATU_PPO2_R128L): 186 | Relative tolerance rate as compared to a non-transgenic Arabidopsis plant (non-transgenic = 1.0) ([1]; transgenic Arabidopsis AMATU_PPO2_dG210): 203 | Relative tolerance rate as compared to a non-transgenic Arabidopsis plant (non-transgenic = 1.0) ([1]; transgenic Arabidopsis AMATU_PPO2_dG210_R128L): 244 | injury (0-9 point scale) ([2]; SDS10791 AmtuPPX2L R128A_F420I, Sulfentrazone 350 g ai/ha): 9 (5×) and 2 (2×) and 1 | injury (0-9 point scale) ([2]; SDS10791 AmtuPPX2L R128A_F420I, Sulfentrazone 700 g ai/ha): 3 (3×) and 4 and 9 (3×) and 2 | injury (0-9 point scale) ([2]; SDS-10642 AmtuPPX2L R128A_F420L, Sulfentrazone 350 g ai/ha): 1 (2×) and 0 (3×) and 3 (2×) and 2 | injury (0-9 point scale) ([2]; SDS-10648 AmtuPPX2L R128A_F420I, Sulfentrazone 350 g ai/ha): 3 (3×) and 4 (2×) and 5 (2×) and 8 | injury (0-9 point scale) ([2]; SDS-10648 AmtuPPX2L R128A_F420I, Sulfentrazone 700 g ai/ha): 3 (2×) and 2 and 9 and 4 (4×) | injury (0-9 point scale) ([2]; SDS-10652 AmtuPPX2L L397D_F420V, Sulfentrazone 350 g ai/ha): 9 and 6 and 3 (2×) and 5 (2×) | injury (0-9 point scale) ([2]; SDS-10787 AmtuPPX2L R128A_F420L, Sulfentrazone 350 g ai/ha): 5 (4×) and 4 and 6 and 9 (2×) | injury (0-9 point scale) ([2]; SDS-10985 AmtuPPX2L R128A_F420M, Sulfentrazone 350 g ai/ha): 3 (4×) and 8 and 4 and 1 | injury (0-9 point scale) ([2]; SDS-10985 AmtuPPX2L R128A_F420M, Sulfentrazone 700 g ai/ha): 1 and 9 (2×) and 2 (2×) and 3 (2×) and 4 | injury (0-9 point scale) ([2]; SDS-10990 AmtuPPX2L R128A_F420M, Sulfentrazone 350 g ai/ha): 3 (4×) and 4 (2×) and 9 (2×) | injury (0-9 point scale) ([2]; SDS-10990 AmtuPPX2L R128A_F420M, Sulfentrazone 700 g ai/ha): 3 and 4 (4×) and 9 (3×) | injury (0-9 point scale) ([2]; SDS-11034 AmtuPPX2L R128A_F420V, Sulfentrazone 350 g ai/ha): 1 (3×) and 3 (2×) and 9 and 0 | injury (0-9 point scale) ([2]; wild type, Sulfentrazone 350 g ai/ha): 9 (5×) and 7 (2×) and 8

Source: patent US11866720B2, “Transgenic or non-transgenic plants with mutated protoporphyrinogen oxidase having increased tolerance to herbicides” (priority 2013, dated 2024)
